Measured values reported in US10821115B2, “Compounds that inhibit Mcl-1 protein” (priority 2017, dated 2020).
Where two headings read alike, the source gives them in different places.

Columns and labels:
[1] = tested on: human multiple myeloma cell line, OPM-2; experiment: Cell viability assay (OPM-2 10 FBS), CellTiter-Glo; type: cell-based
In short: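 3000 cells/well, RPMI 1640 + 10% FBS; serial compound dilutions, 16 h, 37 °C/5% CO2.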

[2] = molecular target: recombinant human Mcl-1 (residues 171-327) / Bim interaction (Homo sapiens (Human), UniProt Q07820); experiment: biochemical; type: binding; conditions: TR-FRET, Mcl-1(171-327) / biotin-Bim (51-76); read-out: Mcl-1 HTRF IC50
[3] = Homo sapiens, OPM-2, 16 h, read-out: OPM-2 10% FBS IC50 IP, OPM-2 cells, 10% FBS, 16 h, CellTiter-Glo
[4] = read-out: OPM-2 10% FBS IC50 IP, OPM-2 cells, 10% FBS, 16 h, CellTiter-Glo

Chain of recombinant human Mcl-1 (residues 171-327) / Bim interaction (Q07820 171-327): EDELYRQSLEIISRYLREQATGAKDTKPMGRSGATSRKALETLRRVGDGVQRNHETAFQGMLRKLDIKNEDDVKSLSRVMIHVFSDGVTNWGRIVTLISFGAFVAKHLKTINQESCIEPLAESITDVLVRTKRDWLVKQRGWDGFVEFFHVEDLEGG

Compound	IC50 [1, 3]	IC50 [2]	IC50 [1, 4]
CCN(CC)C(=O)C[C@@]1(O)/C=C/C[C@H](C)[C@@H](C)S(=O)(=O)NC(=O)c2ccc3c(c2)N(C[C@@H]2CC[C@H]21)C[C@@]1(CCCc2cc(Cl)ccc21)CO3 (single isomer, unassigned) [Example 100084]	1490 nM	0.745 nM	–
C[C@@H]1[C@@H](C)CCC[C@](O)(CC(=O)N2CCOCC2)[C@@H]2CC[C@H]2CN2C[C@@]3(CCCc4cc(Cl)ccc43)COc3ccc(cc32)C(=O)NS1(=O)=O (single isomer, unassigned) [Example 100087]	187 nM	0.864 nM	–
CNC(=O)C[C@@]1(O)CCC[C@H](C)[C@@H](C)S(=O)(=O)NC(=O)c2ccc3c(c2)N(C[C@@H]2CC[C@H]21)C[C@@]1(CCCc2cc(Cl)ccc21)CO3 (single isomer, unassigned) [Example 100103]	778 nM	0.325 nM	–
C[C@@H]1[C@@H](C)C/C=C/[C@](O)([C@@H](C)C(=O)OC(C)(C)C)[C@@H]2CC[C@H]2CN2C[C@@]3(CCCc4cc(Cl)ccc43)COc3ccc(cc32)C(=O)NS1(=O)=O (single isomer, unassigned) [Example 100110]	686 nM	1.48 nM	–
C[C@@H]1[C@@H](C)CCC[C@]2(OCCS2)[C@@H]2CC[C@H]2CN2C[C@@]3(CCCc4cc(Cl)ccc43)COc3ccc(cc32)C(=O)NS1(=O)=O (single isomer, unassigned) [Example 100116]	5940 nM	3.78 nM	–
C[C@@H]1[C@@H](C)CCC[C@](O)([C@@H](C)C(=O)N(C)C)[C@@H]2CC[C@H]2CN2C[C@@]3(CCCc4cc(Cl)ccc43)COc3ccc(cc32)C(=O)NS1(=O)=O (single isomer, unassigned) [Example 100117]	–	2.4 nM	3170 nM
C[C@@H]1[C@@H](C)CCC[C@](O)([C@@H](C)C(=O)N(C)C)[C@@H]2CC[C@H]2CN2C[C@@]3(CCCc4cc(Cl)ccc43)COc3ccc(cc32)C(=O)NS1(=O)=O (single isomer, unassigned) [Example 100118]	–	4.44 nM	3950 nM
C[C@@H]1[C@@H](C)CCC[C@](O)([C@@H](C)C(=O)N(C)C)[C@@H]2CC[C@H]2CN2C[C@@]3(CCCc4cc(Cl)ccc43)COc3ccc(cc32)C(=O)NS1(=O)=O (single isomer, unassigned) [Example 100119]	–	1.72 nM	1570 nM
C[C@H](C(=O)O)[C@@]1(O)/C=C/C[C@H](C)[C@@H](C)S(=O)(=O)NC(=O)c2ccc3c(c2)N(C[C@@H]2CC[C@H]21)C[C@@]1(CCCc2cc(Cl)ccc21)CO3 (single isomer, unassigned) [Example 100120]	–	0.067 nM	635 nM
C[C@H](C(=O)O)[C@@]1(O)/C=C/C[C@H](C)[C@@H](C)S(=O)(=O)NC(=O)c2ccc3c(c2)N(C[C@@H]2CC[C@H]21)C[C@@]1(CCCc2cc(Cl)ccc21)CO3 (single isomer, unassigned) [Example 100121]	–	0.056 nM	2530 nM
C[C@H](C(=O)O)[C@@]1(O)/C=C/C[C@H](C)[C@@H](C)S(=O)(=O)NC(=O)c2ccc3c(c2)N(C[C@@H]2CC[C@H]21)C[C@@]1(CCCc2cc(Cl)ccc21)CO3 (single isomer, unassigned) [Example 100122]	–	0.098 nM	1190 nM
C[C@H](C(=O)O)[C@@]1(O)/C=C/C[C@H](C)[C@@H](C)S(=O)(=O)NC(=O)c2ccc3c(c2)N(C[C@@H]2CC[C@H]21)C[C@@]1(CCCc2cc(Cl)ccc21)CO3 (single isomer, unassigned) [Example 100123]	–	0.092 nM	2660 nM
C[C@@H]1[C@@H](C)C/C=C/[C@@](O)([C@@H](C)C(=O)N(C)C)[C@@H]2CC[C@H]2CN2C[C@@]3(CCCc4cc(Cl)ccc43)COc3ccc(cc32)C(=O)NS1(=O)=O (single isomer, unassigned) [Example 100124]	–	0.323 nM	270 nM
C[C@@H]1[C@@H](C)C/C=C/[C@@](O)([C@@H](C)C(=O)N(C)C)[C@@H]2CC[C@H]2CN2C[C@@]3(CCCc4cc(Cl)ccc43)COc3ccc(cc32)C(=O)NS1(=O)=O (single isomer, unassigned) [Example 100126]	–	0.183 nM	41 nM
C=CC[C@@]1(O)/C=C/C[C@H](C)[C@@H](C)S(=O)(=O)NC(=O)c2ccc3c(c2)N(C[C@@H]2CC[C@H]21)C[C@@]1(CCCc2cc(Cl)ccc21)CO3 (single isomer, unassigned) [Example 100131]	144 nM	0.163 nM	–
C[C@@H]1[C@@H](C)CCC[C@](O)(CC(=O)N(C)C(C)(C)C)[C@@H]2CC[C@H]2CN2C[C@@]3(CCCc4cc(Cl)ccc43)COc3ccc(cc32)C(=O)NS1(=O)=O (single isomer, unassigned) [Example 100142]	–	0.717 nM	663 nM
C[C@@H]1[C@@H](C)CCC[C@](O)(CC(=O)N(C)C(C)(C)C)[C@@H]2CC[C@H]2CN2C[C@@]3(CCCc4cc(Cl)ccc43)COc3ccc(cc32)C(=O)NS1(=O)=O (single isomer, unassigned) [Example 100143]	–	1.87 nM	3270 nM

Compound	IC50 [1, 3]	IC50 [2]	IC50 [1, 4]
C[C@@H]1[C@@H](C)C/C=C/[C@@]2(CCCO2)[C@@H]2CC[C@H]2CN2C[C@@]3(CCCc4cc(Cl)ccc43)COc3ccc(cc32)C(=O)NS1(=O)=O (single isomer, unassigned) [Example 100159]	591 nM	0.559 nM	–
C[C@@H]1[C@@H](C)CCC[C@](O)(CC(=O)N2CCN(C)CC2)[C@@H]2CC[C@H]2CN2C[C@@]3(CCCc4cc(Cl)ccc43)COc3ccc(cc32)C(=O)NS1(=O)=O (single isomer, unassigned) [Example 100168]	196 nM	0.249 nM	–
C[C@@H]1[C@@H](C)CCC[C@](O)(CC(=S)N(C)C)[C@@H]2CC[C@H]2CN2C[C@@]3(CCCc4cc(Cl)ccc43)COc3ccc(cc32)C(=O)NS1(=O)=O (single isomer, unassigned) [Example 100172]	–	1.29 nM	1570 nM
C[C@@H]1[C@@H](C)CCC[C@](O)(CC(=S)N(C)C)[C@@H]2CC[C@H]2CN2C[C@@]3(CCCc4cc(Cl)ccc43)COc3ccc(cc32)C(=O)NS1(=O)=O (single isomer, unassigned) [Example 100173]	–	0.539 nM	379 nM
C[C@@H]1[C@@H](C)C/C=C/[C@@](O)(c2ccccn2)[C@@H]2CC[C@H]2CN2C[C@@]3(CCCc4cc(Cl)ccc43)COc3ccc(cc32)C(=O)NS1(=O)=O (single isomer, unassigned) [Example 100181]	226 nM	0.537 nM	–
C[C@@H]1[C@@H](C)C/C=C/[C@](O)(c2cccnc2)[C@@H]2CC[C@H]2CN2C[C@@]3(CCCc4cc(Cl)ccc43)COc3ccc(cc32)C(=O)NS1(=O)=O (single isomer, unassigned) [Example 100183]	2240 nM	1.34 nM	–
CO[C@]1(C)CCC[C@H](C)[C@@H](C)S(=O)(=O)NC(=O)c2ccc3c(c2)N(C[C@@H]2CC[C@H]21)C[C@@]1(CCCc2cc(Cl)ccc21)CO3 (single isomer, unassigned) [Example 100211]	–	1.44 nM	4780 nM
CO[C@]1(C)CCC[C@H](C)[C@@H](C)S(=O)(=O)NC(=O)c2ccc3c(c2)N(C[C@@H]2CC[C@H]21)C[C@@]1(CCCc2cc(Cl)ccc21)CO3 (single isomer, unassigned) [Example 100212]	–	0.901 nM	1620 nM
C[C@@H]1[C@@H](C)CCC[C@]2(CCO2)[C@@H]2CC[C@H]2CN2C[C@@]3(CCCc4cc(Cl)ccc43)COc3ccc(cc32)C(=O)NS1(=O)=O (single isomer, unassigned) [Example 100229]	1490 nM	0.356 nM	–
C[C@@H]1[C@@H](C)C/C=C/[C@](O)(CC(=O)N(C)c2ccccc2)[C@@H]2CC[C@H]2CN2C[C@@]3(CCCc4cc(Cl)ccc43)COc3ccc(cc32)C(=O)NS1(=O)=O (single isomer, unassigned) [Example 100248]	6680 nM	11.1 nM	–
C[C@@H]1[C@@H](C)CCC[C@@](O)(Cc2nccs2)[C@@H]2CC[C@H]2CN2C[C@@]3(CCCc4cc(Cl)ccc43)COc3ccc(cc32)C(=O)NS1(=O)=O (single isomer, unassigned) [Example 100250]	–	0.136 nM	82 nM
C[C@@H]1[C@@H](C)CCC[C@@](O)(Cc2nccs2)[C@@H]2CC[C@H]2CN2C[C@@]3(CCCc4cc(Cl)ccc43)COc3ccc(cc32)C(=O)NS1(=O)=O (single isomer, unassigned) [Example 100251]	–	3.29 nM	3730 nM
C=CC[C@]1(O)CCC[C@H](C)[C@@H](C)S(=O)(=O)NC(=O)c2ccc3c(c2)N(C[C@@H]2CC[C@H]21)C[C@@]1(CCCc2cc(Cl)ccc21)CO3 (single isomer, unassigned) [Example 100266]	–	0.292 nM	571 nM
C=CC[C@]1(O)CCC[C@H](C)[C@@H](C)S(=O)(=O)NC(=O)c2ccc3c(c2)N(C[C@@H]2CC[C@H]21)C[C@@]1(CCCc2cc(Cl)ccc21)CO3 (single isomer, unassigned) [Example 100273]	–	5.66 nM	8660 nM
C[C@@H]1[C@@H](C)C/C=C/[C@](O)(c2ncccn2)[C@@H]2CC[C@H]2CN2C[C@@]3(CCCc4cc(Cl)ccc43)COc3ccc(cc32)C(=O)NS1(=O)=O (single isomer, unassigned) [Example 100274]	543 nM	0.377 nM	–
C[C@@H]1[C@@H](C)C/C=C/[C@@](CC(=O)N(C)C)(OCCN2CCOCC2)[C@@H]2CC[C@H]2CN2C[C@@]3(CCCc4cc(Cl)ccc43)COc3ccc(cc32)C(=O)NS1(=O)=O (single isomer, unassigned) [Example 100310]	120 nM	0.152 nM	–
C[C@@H]1[C@@H](C)C/C=C/[C@](O)(c2cccnc2F)[C@@H]2CC[C@H]2CN2C[C@@]3(CCCc4cc(Cl)ccc43)COc3ccc(cc32)C(=O)NS1(=O)=O (single isomer, unassigned) [Example 100313]	–	0.129 nM	143 nM
